ChEMBL document CHEMBL1201862, “PubChem BioAssay data set” (2004)
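In this assay, cells in 96-well plates receive the compound at five concentrations for 48 hours. Endpoints are linearly interpolated between the surrounding concentrations. At the GI50, growth is halved.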 The source made the active and inactive calls. No stated cut-off is given here; in the data, active = GI50 up to about 1.1 µM and inactive = higher.

What was measured:
Assay in all cases: NCI tumour cell line growth inhibition, 48 h
[1] = tested on: SK-OV-3
[2] = tested on: K562
[3] = tested on: OVCAR-8
[4] = tested on: M14
[5] = tested on: SF-539
[6] = tested on: SW-620
[7] = tested on: UO-31
[8] = tested on: MDA-N
[9] = tested on: SK-MEL-28
[10] = tested on: PC-3
[11] = tested on: CAKI-1
[12] = tested on: CCRF-CEM
[13] = tested on: KM12
[14] = tested on: RXF 393
[15] = tested on: NCI-H226
[16] = tested on: NCI-H460
[17] = tested on: SNB-19
[18] = tested on: RPMI-8226
[19] = tested on: UACC-62
[20] = tested on: Malme-3M

Measured: GI50

CNc1nnc(CNc2ccc(-c3nnc(NC)n3N)cc2)n1N
inactive: [1] > 100 µM | [2] > 100 µM | [3] > 100 µM | [4] > 100 µM | [5] > 100 µM | [6] > 100 µM | [7] > 100 µM | [8] > 100 µM | [9] > 100 µM | [10] > 100 µM | [11] > 100 µM | [12] > 100 µM | [13] > 100 µM | [14] > 100 µM | [15] > 100 µM | [16] > 100 µM | [17] > 100 µM

C[n+]1c(-c2ccc(/C=N\N3CCN(/N=C/c4ccc(-c5cn6ccccc6[n+]5C)cc4)CC3)cc2)cn2ccccc21
inactive: [1] > 100 µM | [3] > 100 µM | [4] 48.4 µM | [18] 20.9 µM | [5] 48.4 µM | [6] 76.6 µM | [7] > 100 µM | [8] 36.2 µM | [19] 33.7 µM | [10] > 100 µM | [11] 20.5 µM | [12] 34.2 µM | [13] 55.3 µM | [14] 24.5 µM | [15] 33 µM | [16] 58.6 µM | [17] 32 µM

CCOC(=O)c1nc2ccc(C(F)(F)F)cc2nc1Nc1ccc(Cl)c(Cl)c1
inactive: [1] > 100 µM | [2] 39.4 µM | [3] 74.5 µM | [4] 79.8 µM | [18] > 100 µM | [5] 69.7 µM | [6] > 100 µM | [7] > 100 µM | [8] 96.8 µM | [19] > 100 µM | [9] > 100 µM | [10] > 100 µM | [11] 57.1 µM | [12] 86.1 µM | [13] 75.9 µM | [14] > 100 µM | [16] > 100 µM | [20] > 100 µM | [17] 42.5 µM

Clc1ccc(C2Nc3ccccc3C3=NCCN32)cc1 (centres undefined)
inactive: [1] 26.1 µM | [2] 15.7 µM | [3] 18.3 µM | [4] 15.1 µM | [18] 15.9 µM | [5] 15.6 µM | [6] 24.5 µM | [7] 27.3 µM | [8] 17.4 µM | [19] 16.9 µM | [9] 18 µM | [10] 55.3 µM | [11] 26.5 µM | [12] 28.4 µM | [13] 18.3 µM | [14] 21.1 µM | [16] 16.3 µM | [20] 15.4 µM | [17] 27.9 µM

CO[C@H]1O[C@@H]2CO[C@@H](c3ccccc3)O[C@H]2C[C@]12CCC/C=C\CO2
inactive: [1] 37.7 µM | [2] 13.9 µM | [3] 12.1 µM | [4] 15.8 µM | [5] 14.6 µM | [6] 20.6 µM | [7] 14.3 µM | [8] 14.1 µM | [19] 27.4 µM | [9] 13.4 µM | [10] 16.2 µM | [11] 25.9 µM | [12] 10.4 µM | [13] 29.5 µM | [14] 13.9 µM | [15] 18.3 µM | [16] 47.4 µM | [20] 14.1 µM | [17] 22.8 µM

CC(=O)O[C@H]1C[C@](C)(O)[C@@]23CC([C@@H](OC(=O)C(C)(C)O)[C@@H](OC(C)=O)C2(COC(=O)c2ccccc2)[C@H]1OC(C)=O)C(C)(C)O3 (some centres undefined)
inactive: [1] > 100 µM | [2] 50 µM | [3] > 100 µM | [4] 55.5 µM | [18] 23.6 µM | [5] > 100 µM | [6] > 100 µM | [7] > 100 µM | [8] > 100 µM | [19] > 100 µM | [9] > 100 µM | [10] 44 µM | [11] > 100 µM | [12] 41.1 µM | [13] 78.5 µM | [14] > 100 µM | [16] > 100 µM | [20] > 100 µM | [17] > 100 µM

Cc1ccc(Sc2ccccc2C23OC(C)(C4C(=O)N(c5ccccc5)C(=O)C42)N(C)C3=O)cc1 (centres undefined)
inactive: [1] > 100 µM | [2] > 100 µM | [3] > 100 µM | [4] > 100 µM | [5] > 100 µM | [6] > 100 µM | [7] > 100 µM | [8] > 100 µM | [19] 88.5 µM | [9] > 100 µM | [10] > 100 µM | [11] > 100 µM | [12] > 100 µM | [13] > 100 µM | [14] 85.7 µM | [15] > 100 µM | [16] > 100 µM | [20] 79.6 µM | [17] > 100 µM

Cc1c(C2=C(Br)C(=O)N(C)C2=O)c(=O)n(C)c(=O)n1C
inactive: [1] > 100 µM | [2] 21.3 µM | [3] 29.6 µM | [4] 35.1 µM | [18] 15.1 µM | [5] 14.9 µM | [6] 31.4 µM | [7] 18.5 µM | [8] 28.1 µM | [19] 34.4 µM | [9] 39.4 µM | [10] 23.6 µM | [11] 19 µM | [12] 12.2 µM | [13] > 100 µM | [14] 14.3 µM | [15] > 100 µM | [16] 45.6 µM | [17] > 100 µM

Oc1c(NCn2nc(CCCCCCCCc3nn(CNc4ccc5ccccc5c4O)c(=S)o3)oc2=S)ccc2ccccc12
inactive: [1] > 100 µM | [2] > 100 µM | [4] 34.8 µM | [18] 46.8 µM | [6] 35.6 µM | [7] 98.2 µM | [8] 17.2 µM | [19] 68.4 µM | [9] 49.7 µM | [10] > 100 µM | [11] > 100 µM | [13] 28.2 µM | [14] 30.1 µM | [15] > 100 µM | [16] > 100 µM | [20] 75.2 µM | [17] > 100 µM

CC#CC(O)(C(=O)OC1CC2CCC(C1)N2C)C1CCCC1 (centres undefined)
inactive: [1] > 100 µM | [2] > 100 µM | [3] > 100 µM | [4] > 100 µM | [18] > 100 µM | [5] > 100 µM | [6] > 100 µM | [7] > 100 µM | [8] > 100 µM | [19] > 100 µM | [9] > 100 µM | [10] > 100 µM | [11] > 100 µM | [12] > 100 µM | [13] > 100 µM | [14] > 100 µM | [15] > 100 µM | [16] > 100 µM | [17] > 100 µM
